Results as given in PubChem BioAssay (NCI).
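These data come from cells grown in 96-well plates and exposed to compound for 48 hours at five concentrations. TGI is the concentration that stops growth completely.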

How the values were obtained:
Assay in all cases: NCI-60 cell line screen, 48 h
[1] = test system: 786-0 renal
[2] = test system: A498 renal
[3] = test system: A549 NSCLC
[4] = test system: ACHN renal
[5] = test system: BT-549 breast
[6] = test system: CAKI-1 renal
[7] = test system: CCRF-CEM leukemia
[8] = test system: COLO 205 colon
[9] = test system: DU-145 prostate
[10] = test system: EKVX NSCLC
[11] = test system: HCC-2998 colon
[12] = test system: HCT-116 colon
[13] = test system: HCT-15 colon
[14] = test system: HL-60(TB) leukemia
[15] = test system: HOP-62 NSCLC
[16] = test system: HOP-92 NSCLC
[17] = test system: HS 578T breast
[18] = test system: HT29 colon
[19] = test system: IGROV1 ovarian
[20] = test system: K-562 leukemia
[21] = test system: KM12 colon
[22] = test system: LOX IMVI melanoma
[23] = test system: M14 melanoma
[24] = test system: MALME-3M melanoma
[25] = test system: MCF7 breast
[26] = test system: MDA-MB-231 breast
[27] = test system: MDA-MB-435
[28] = test system: MDA-N
[29] = test system: MOLT-4 leukemia
[30] = test system: NCI-H226 lung
[31] = test system: NCI-H23 lung
[32] = test system: NCI-H460 lung
[33] = test system: NCI-H522 lung
[34] = test system: NCI/ADR-RES ovarian
[35] = test system: OVCAR-3 ovarian
[36] = test system: OVCAR-4 ovarian
[37] = test system: OVCAR-5 ovarian
[38] = test system: OVCAR-8 ovarian
[39] = test system: PC-3 prostate
[40] = test system: RPMI-8226 leukemia
[41] = test system: RXF 393 renal
[42] = test system: SF-268 CNS
[43] = test system: SF-295 CNS
[44] = test system: SF-539 CNS
[45] = test system: SK-MEL-2 melanoma
[46] = test system: SK-MEL-28 melanoma
[47] = test system: SK-MEL-5 melanoma
[48] = test system: SK-OV-3 ovarian
[49] = test system: SN12C renal
[50] = test system: SNB-19 CNS
[51] = test system: SNB-75 CNS
[52] = test system: SR leukemia
[53] = test system: SW-620 colon
[54] = test system: T-47D breast
[55] = test system: TK-10 renal
[56] = test system: U251 CNS
[57] = test system: UACC-257 melanoma
[58] = test system: UACC-62 melanoma
[59] = test system: UO-31 renal

Measured: TGI

CC(=O)Nc1ccc(NS(=O)(=O)c2ccc3nc(C)n(NS(=O)(=O)c4ccc(NC(C)=O)cc4)c(=O)c3c2)cc1
> 100 µM: all assays above

Nc1cc(F)ccc1CC(=O)O
not listed: [16] | [32] | [35] | [36]
> 100 µM: all other assays above
